Key:
[1] = target: Tyrosine-protein kinase JAK2 (Homo sapiens) (UniProt O60674); settings: at 10 µM
Description: Inhibition of JAK2 (unknown origin) at 10 uM

[2] = target: T1, Tyrosine-protein kinase JAK3 (Homo sapiens) (UniProt P52333); settings: at 10 µM
T1 sequence (whole entry): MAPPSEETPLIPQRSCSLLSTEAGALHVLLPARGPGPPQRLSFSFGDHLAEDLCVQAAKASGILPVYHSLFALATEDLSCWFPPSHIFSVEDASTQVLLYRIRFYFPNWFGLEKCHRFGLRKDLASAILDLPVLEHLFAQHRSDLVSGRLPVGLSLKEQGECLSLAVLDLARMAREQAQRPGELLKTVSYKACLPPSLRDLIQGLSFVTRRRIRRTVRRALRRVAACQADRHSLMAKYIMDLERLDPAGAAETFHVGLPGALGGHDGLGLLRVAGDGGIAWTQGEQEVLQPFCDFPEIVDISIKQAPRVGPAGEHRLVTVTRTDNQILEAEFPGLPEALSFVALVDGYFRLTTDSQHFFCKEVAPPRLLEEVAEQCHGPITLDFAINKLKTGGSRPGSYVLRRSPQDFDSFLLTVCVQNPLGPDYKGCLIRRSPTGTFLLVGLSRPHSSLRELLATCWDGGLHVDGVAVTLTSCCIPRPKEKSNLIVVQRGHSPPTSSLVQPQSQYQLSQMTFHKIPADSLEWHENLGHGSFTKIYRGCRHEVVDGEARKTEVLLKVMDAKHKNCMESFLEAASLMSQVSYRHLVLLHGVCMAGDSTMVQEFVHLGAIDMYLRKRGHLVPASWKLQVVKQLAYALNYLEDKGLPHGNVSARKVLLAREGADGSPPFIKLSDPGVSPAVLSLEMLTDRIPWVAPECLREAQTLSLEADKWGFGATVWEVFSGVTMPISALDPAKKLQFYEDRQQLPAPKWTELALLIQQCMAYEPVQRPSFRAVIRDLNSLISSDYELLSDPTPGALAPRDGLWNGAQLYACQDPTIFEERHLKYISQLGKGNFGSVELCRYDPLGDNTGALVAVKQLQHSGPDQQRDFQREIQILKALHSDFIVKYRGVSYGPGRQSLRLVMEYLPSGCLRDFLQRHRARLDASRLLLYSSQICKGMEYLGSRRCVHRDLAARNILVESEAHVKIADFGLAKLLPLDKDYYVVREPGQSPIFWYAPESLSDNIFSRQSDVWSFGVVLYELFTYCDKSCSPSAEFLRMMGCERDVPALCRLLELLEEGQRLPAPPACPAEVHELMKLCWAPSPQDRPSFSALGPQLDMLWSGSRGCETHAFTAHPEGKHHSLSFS
Description: Inhibition of JAK3 (unknown origin) at 10 uM

Chain of Tyrosine-protein kinase JAK2 (Homo sapiens) (O60674 whole entry): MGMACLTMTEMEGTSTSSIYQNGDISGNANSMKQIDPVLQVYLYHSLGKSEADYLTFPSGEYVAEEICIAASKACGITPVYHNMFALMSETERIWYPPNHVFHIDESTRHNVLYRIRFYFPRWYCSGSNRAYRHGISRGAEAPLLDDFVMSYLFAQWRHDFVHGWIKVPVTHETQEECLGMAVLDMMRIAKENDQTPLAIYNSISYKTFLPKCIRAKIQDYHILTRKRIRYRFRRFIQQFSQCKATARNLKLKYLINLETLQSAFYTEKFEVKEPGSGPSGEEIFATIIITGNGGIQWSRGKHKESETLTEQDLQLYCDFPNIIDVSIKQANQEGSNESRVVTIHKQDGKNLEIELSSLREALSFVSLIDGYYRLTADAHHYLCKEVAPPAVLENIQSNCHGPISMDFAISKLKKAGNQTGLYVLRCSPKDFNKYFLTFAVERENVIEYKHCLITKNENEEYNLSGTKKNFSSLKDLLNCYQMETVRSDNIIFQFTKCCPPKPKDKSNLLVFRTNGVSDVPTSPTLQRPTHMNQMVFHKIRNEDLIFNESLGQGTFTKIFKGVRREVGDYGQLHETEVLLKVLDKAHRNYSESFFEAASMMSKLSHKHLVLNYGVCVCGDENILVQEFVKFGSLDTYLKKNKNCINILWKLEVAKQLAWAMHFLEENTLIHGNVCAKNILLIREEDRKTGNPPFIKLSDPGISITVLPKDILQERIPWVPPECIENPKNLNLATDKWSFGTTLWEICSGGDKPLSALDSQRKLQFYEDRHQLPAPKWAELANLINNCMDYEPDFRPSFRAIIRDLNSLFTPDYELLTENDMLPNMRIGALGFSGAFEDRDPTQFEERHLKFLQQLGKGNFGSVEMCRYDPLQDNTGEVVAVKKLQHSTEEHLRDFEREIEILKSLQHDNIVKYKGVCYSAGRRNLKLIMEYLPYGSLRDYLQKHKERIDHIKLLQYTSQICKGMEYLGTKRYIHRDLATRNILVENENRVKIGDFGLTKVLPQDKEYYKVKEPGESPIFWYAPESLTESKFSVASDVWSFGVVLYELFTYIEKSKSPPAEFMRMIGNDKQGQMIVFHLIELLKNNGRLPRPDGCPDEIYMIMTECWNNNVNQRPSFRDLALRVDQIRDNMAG

| inhibition [1] [%] | inhibition [2] [%] | SMILES |
| --- | --- | --- |
| 1.2 | 22.5 | NC(=O)c1cc(-c2cccc3[nH]ncc23)cc2cn[nH]c12 |
| 2.2 | 24.9 | NC(=O)c1cc(-c2cccc3[nH]ncc23)cc2c(C#CCO)n[nH]c12 |
| 9.1 | 15.7 | NC(=O)c1cc(-c2cc(N)cc3[nH]ncc23)cc2cn[nH]c12 |

Second part, the compound before the results:

| SMILES | inhibition [1] [%] | inhibition [2] [%] |
| --- | --- | --- |
| NC(=O)c1cc(-c2cccc3[nH]ncc23)cc2c(C#CCCO)n[nH]c12 | 6.7 | 32.3 |
| NC(=O)c1cc(-c2cc(N)cc3[nH]ncc23)cc2c(C#CCCO)n[nH]c12 | 2.5 | 48.1 |
| NC(=O)c1cc(-c2cc(N)cc3[nH]ncc23)cc2c(C#CCO)n[nH]c12 | -0.4 | 38.1 |

Source: ChEMBL document CHEMBL3102787, “Linear propargylic alcohol functionality attached to the indazole-7-carboxamide as a JAK1-specific linear probe group” (Bioorg Med Chem, 2014)
